# Results from patent US20110217412A1, “CHOLESTEROL LOWERING SUPPLEMENT AND LOW CHOLESTEROL EGG PRODUCED BY USING THE SAME” (JINIS BIOPHARMACEUTICALS CO., priority 2004, published 2011).
# Tests used:
# [1] = test system: ISA brown hens; experiment: Egg laying performance of hens fed supplemented diet (egg weight, egg production); assay type: in vivo; settings: for Egg production: 6 weeks
# Experimental: (§1) Healthy ISA brown hens, 45-week old, were assigned randomly to each dietary group (control group, 8 birds; experimental group, 6 birds each). Each bird was placed in an individual cage in an environmentally controlled room (25° C., 50% relative humidity, 16L:8D). The hens were allowed for 2 weeks in which to adapt to the feed with no additives and the housing. Control birds were fed a commercial diet based on corn and soybean meal (Table 1), while birds in experimental groups were fed diets supplemented with 0.003 or 0.03% of compactin (Sigma Aldrich Korea) for 6 weeks. Feed and water were provided ad libitum throughout the experiment. Feed consumption, egg production and egg weight were recorded daily. Egg production was expressed as percent hen day production; (100×number of eggs laid)/(number of hens×days).
# The effects of 0.003% or 0.03% compactin on the laying performance of 45-week old ISA brown hens were investigated (Table 2). Egg weight was maintained at more than 60 grams after 6 weeks of oral administrations of compactin at both doses. […] Maintenance of laying performance with compactin feeding is of contrast to the previous art in which atorvastatin reduced egg production down to 70% after feeding for 5-week.
# Egg production and yolk cholesterol analysis was performed with 0.003 and 0.03% pravastatin administered group with the same procedure as described in Example 1 above. Hen performance was investigated by measuring egg weight and egg production as in Table 4. Pravastatin group had maintained above 80% of egg production rate after 6-week administration, same as control.
# (§2) Egg production and yolk cholesterol analysis was performed with the same procedure as described in Example 1 above except 0.5 and 1% of Streptomyces cell precipitates and bioconversion reaction broth were administered instead of compactin. Hen performance was investigated by measuring egg weight and egg production as in Table 6.
# [2] = test system: ISA brown hens; experiment: Egg cholesterol analysis (yolk weight, gas chromatography of yolk cholesterol) of hens fed supplemented diet; assay type: in vivo; settings: compared to control
# Experimental: as §1
# For egg cholesterol analysis, eggs from each bird were collected and egg yolk was separated, weighed, and sampled for analysis. Lipids from eggs were extracted by the method of Folch et al. (1957). Briefly, one gram of sample was saponified with 3 mL of 33% KOH and incubated with 30 mL of 95% methanol in a 65° C. water bath for 90 min. After saponification, 10 mL hexane and 3 mL water were added, followed by vigorous shaking for 10 min. 5α-cholestan (Sigma C-8300) was used as an internal standard. Cholesterol content was determined by a gas chromatography (Shimadzu, Japan) using column VB-1 (30 m×0.25 mm×0.25 μm, VICI Inc.) with a split ratio of 100:1 and nitrogen as carrier gas for a column flow rate of 0.54 mL/min. Injector, column, and detector temperatures were 275° C., 290° C., and 340° C., respectively. […] The average control yolk weight was 17.2 g. […] Administration of compactin caused the significant reduction in yolk weight, compared to the control with 12.8 mg cholesterol per gram of yolk. When expressed as total yolk cholesterol content, percentage changes compared to that of control were 16% and 29% at 0.003% and 0.03% compactin, respectively.
# Streptomyces cell precipitates and cell culture broth after compactin bioconversion were used as cholesterol lowering supplements respectively. First, compactin bioconversion was done as following. Single colony of streptomyces carbophilus was inoculated into 100 ml R2YE in 500 ml erlenmyer flask and incubated at 27° C. at 200 rpm for 3 days. After incubation, 10 ml of seed culture was added to 100 ml of conversion media (glucose 2.0%, corn steep liquor 0.2%, K2HPO4 0.15%, yeast extract 0.1%, MgSO4.7H2O 0.15%, ZnSO47H2O 0.001%, NH4NO3 0.1%, peptone 0.1%, pH 7.0) in 500 ml flask and incubated at 27° C. at 200 rpm for 3 days. Then, filter sterilized compactin salt was added into culture up to 0.1% weight of culture and incubated for another 4 days. After bioconversion reaction, culture media was analyzed by TLC to confirm the presence of compactin and pravastatin. This culture was freeze dried for 24 hours and then used as cholesterol lowering supplements. Also Streptomyces cells were obtained from bioconversion reaction by centrifugation at 3,000×g. Streptomyces cell precipitates recovered as pellets was dried at 60° C. and used as cholesterol lowering supplements. Streptomyces cell precipitates as well as bioconversion reaction broth was dried and used as cholesterol lowering supplements as shown in Example 1. Egg production and cholesterol amount were measured afterward.
# as §2
# [3] = cited from earlier work
# [4] = test system: hens; settings: cited from earlier work
# [5] = test system: hens; settings: cited from earlier work; remark: listed apart in the source
# [6] = 0.003 weight % pravastatin in feed
# [7] = 0.03 weight % pravastatin in feed
compound,measurement,setting,value
"CC[C@H](C)C(=O)O[C@H]1CCC=C2C=C[C@H](C)[C@H](CC[C@@H]3C[C@@H](O)CC(=O)O3)[C@H]21 [Compactin, compactin]",Difference in egg production compared to the control group,[1]; in vivo,did not cause any difference in egg production
same,Reduction rates in the production of eggs,[1]; in vivo,at most 5%
same,Cholesterol content change,[2]; 0.003 weight % compactin in feed,−16%
same,Cholesterol content change,"[2]; 0.003 weight % compactin in feed, listed as compactin",-16%
same,Cholesterol content change,[2]; 0.03 weight % compactin in feed,−29%
same,Cholesterol content change,"[2]; 0.03 weight % compactin in feed, listed as compactin",-29%
same,Toxicity in clinical trials,[3],serious toxicity
CC(C)c1c(C(=O)Nc2ccccc2)c(-c2ccccc2)c(-c2ccc(F)cc2)n1CC[C@@H](O)C[C@@H](O)CC(=O)O [atorvastatin],Effect on the cholesterol content in eggs,"[4]; according to U.S. Pat. No. 6,177,121",distinctly effective
same,Reduction of egg production versus control group,"[5]; 2, 3 and 4 weeks after administration, Table 2 of U.S. Pat. No. 6,177,121",20%
same,Egg production reduced down to,[5]; after feeding for 5-week,70%
CC[C@H](C)C(=O)O[C@H]1C[C@@H](C)C=C2C=C[C@H](C)[C@H](CC[C@@H]3C[C@@H](O)CC(=O)O3)[C@H]21 [lovastatin],Reduction in cholesterol content in eggs,[4]; dose of 0.03%,~3.9%
pravastatin,Egg production,[1]; [6],84%
same,Egg production,[1]; [7],82%
same,Egg production rate maintained,[1]; after 6-week administration of pravastatin (0.003 and 0.03%),above 80%
same,Cholesterol content change,[2]; [6],−6%
same,Cholesterol content change,[2]; [7],−24%
